Non-standard residues stand in square brackets, D forms with d. No end group written: not given here. Nle = CCCC[C@H](N)C(=O)O
What was measured:
[1] = test system: cAMP stimulation evoked by AVT; experiment: AVT evoked intracellular cAMP stimulation in Xenopus melanophores; assay type: cell-based, Xenopus laevis; conditions: AVT 8 nM
Method: (§1) Oxytocin antagonist GVT ([d(CH2)5, Tyr (Me)^2, Orn^8]-Vasotocin; from Peninsula), at 20 μM, is used as a control to block responses evoked by 8 Nm AVT. Intracellular CAMP measurements were taken from confluent Xenopus melanophores grown in 24-well tissue culture plates (Falcon). Each bar represents the mean and SSD of four independent measurements. *(T-test; P<0.001) for all groups except those bearing asterisks.
(§2) Melanophores were plated confluently into 24-well tissue culture (Falcon) plates two days before the assay. Immediately prior to an assay, cells were washed with 70% L-15 medium (Sigma) containing 0.05% bovine serum albumin and then treated with 1 nm melatonin in the same medium. Then, cells were washed for 5 min in 70% L-15+0.05% bovine serum albumin+0.5 mm 3-isobutyl-1-methylxanthine (Aldrich)+1 nm melatonin, followed by 30 min of treatment with the test drug in the same media. After the drug treatment, cells were washed twice with 70% phosphate-buffered saline.
(§3) Oxytocin antagonist GVT ([d(CH2)5, Tyr (Me)^2, Orn^8]-Vasotocin; from Peninsula), at 20 μM, is used as a control to block responses evoked by 8 nM AVT.

[2] = test system: vasoactive intestinal peptide (VIP) activated pigment dispersion in Xenopus melanophores; conditions: read-out: EC50 (pigment dispersion)
Method: (§4) Each point represents the mean and SSD of four independent transmittance measurements. Ti=initial transmittance (2 min.). Tf=final transmittance (60 min.).
(§5) For dose-response studies all tripeptides were synthesized on Rink Amide MBHA resin 0.25 mmol scale using standard Fmoc chemistry. After synthesis, peptides were purified suing HPLC and reverse-phase chromatography on a C18 column. The dose-response curves were obtained by microtiter plate assays (Potenza et al, 1992, Pigment Cell Res. 5, 372-378). Melanophore cells (18,000/well) were plated on 96-well tissue culture plates (Falcon).
(§6) The 221,184 component library was organized as 96 sub-libraries with 2,304 different peptide combinations per pool, each defined by the chemical structure of the amino terminal position.

[3] = test system: α-MSH mediated cAMP second messenger stimulation; experiment: α-MSH mediated intracellular cAMP stimulation in Xenopus melanophores; assay type: cell-based, Xenopus laevis; conditions: peptide at 40 μM; α-MSH 10 nM
Method: as §1, §2, §3

[4] = molecular target: T1, endogenous amphibian MSH-receptors (Xenopus laevis, UniProt A0A1L8GF34); assay type: cell-based; conditions: against 15 nM α-MSH; melanophores pretreated with 1 nM melatonin; mean±SE
T1 sequence (A0A1L8GF34 1-317): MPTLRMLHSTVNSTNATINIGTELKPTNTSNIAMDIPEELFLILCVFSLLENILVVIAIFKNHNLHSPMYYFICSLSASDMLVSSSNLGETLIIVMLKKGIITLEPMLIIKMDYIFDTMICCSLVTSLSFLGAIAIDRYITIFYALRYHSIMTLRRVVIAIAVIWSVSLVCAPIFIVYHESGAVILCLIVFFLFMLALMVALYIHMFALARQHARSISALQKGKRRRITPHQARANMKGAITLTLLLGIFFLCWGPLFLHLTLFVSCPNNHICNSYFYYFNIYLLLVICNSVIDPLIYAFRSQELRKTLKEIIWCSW
Method: Melanin dispersion responses were quantitated by measuring transmittance through a monolayer of cultured melanophores pretreated with 1 nM melatonin (Potenza, et. al., 1992, Anal Biochem. 206, 315-22) and curve fit with a logistic equation (De Lean et al., 1978, Am J. Physiol. 235, E97-E102).
Broken lines indicate 99% confidence level.
as §4, §5

[5] = test system: [Arg^8]-vasotocin (AVT) activated pigment dispersion in Xenopus melanophores; conditions: read-out: EC50 (pigment dispersion)
Method: as §4, §5, §6

Substance | IC50 (μM) [4] | other results
[d(CH2)5, Tyr (Me)^2, Orn^8]-Vasotocin [GVT, reference compound] |  | block of responses evoked by AVT (cAMP) ([1]; antagonist at 20 μM, control): block
Vasoactive Intestinal Peptide [VIP] |  | EC50 [2]: ~1 nM
D-Trp-Arg-Nle-NH2 [A2] |  | block of α-MSH mediated cAMP stimulation [3]: blocks; block of cAMP stimulation evoked by AVT ([1]; peptide at 40 μM): does not block
D-Trp-Arg-γAbu-NH2 [A11] | Inactive | 
[Arg^8]-vasotocin [AVT] |  | EC50 [5]: ~2 nM
D-Trp-Arg-εAhx-NH2 [A12] | Inactive | 
D-Trp-Arg-βAla-NH2 [A14] | Inactive | 
D-Trp-Arg-Ala-NH2 [A13] | Inactive | 
[dW]-Asp-[Nle]-NH2 [B8] | Inactive | 
